Tests used:
Test in all cases: relative viability (nuclei count vs DMSO), 5 days (fraction); higher = more cells survive
201T = system: 201T
In short: (§1)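 Five library-drug doses in √10 steps were combined with a fixed anchor-drug dose, or a single drug was given alone, by pin tool to lung cancer cell lines in 1536-well plates the day after seeding. Nuclei were stained and counted after 5 days. Relative viability is the nuclei count in treated wells over that in vehicle wells, taken as the median of duplicate plates.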

COR-L23 = system: COR-L23
In short: as §1

EPLC-272H = system: EPLC-272H
In short: as §1

H3255 = system: H3255
In short: as §1

HCC-15 = system: HCC-15
In short: as §1

LOU-NH91 = system: LOU-NH91
In short: as §1

NCI-H1563 = system: NCI-H1563
In short: as §1

NCI-H1650 = system: NCI-H1650
In short: as §1

NCI-H1734 = system: NCI-H1734
In short: as §1

NCI-H2023 = system: NCI-H2023
In short: as §1

NCI-H2170 = system: NCI-H2170
In short: as §1

NCI-H2347 = system: NCI-H2347
In short: as §1

NCI-H2405 = system: NCI-H2405
In short: as §1

NCI-H3122 = system: NCI-H3122
In short: as §1

NCI-H322M = system: NCI-H322M
In short: as §1

NCI-H441 = system: NCI-H441
In short: as §1

NCI-H520 = system: NCI-H520
In short: as §1

NCI-H647 = system: NCI-H647
In short: as §1

PC-14 = system: PC-14
In short: as §1

UMC-11 = system: UMC-11
In short: as §1

Structure (SMILES): CC(=O)O[C@@]12CO[C@@H]1C[C@H](O)[C@@]1(C)C(=O)[C@H](O)C3=C(C)[C@@H](OC(=O)[C@H](O)[C@@H](NC(=O)OC(C)(C)C)c4ccccc4)C[C@@](O)([C@@H](OC(=O)c4ccccc4)[C@H]21)C3(C)C [Docetaxel] + C[C@@H](Oc1cc(-c2cnn(C3CCNCC3)c2)cnc1N)c1c(Cl)ccc(F)c1Cl [Crizotinib] (partner 1 µM)
- relative viability (201T; first compound 0.0002 µM): 0.983
- relative viability (201T; first compound 0.000632 µM): 1.03
- relative viability (201T; first compound 0.002 µM): 0.908
- relative viability (201T; first compound 0.006325 µM): 0.646
- relative viability (201T; first compound 0.02 µM): 0.5
- relative viability (COR-L23; first compound 0.0002 µM): 0.536
- relative viability (COR-L23; first compound 0.000632 µM): 0.483
- relative viability (COR-L23; first compound 0.002 µM): 0.111
- relative viability (COR-L23; first compound 0.006325 µM): 0.132
- relative viability (COR-L23; first compound 0.02 µM): 0.0806
- relative viability (EPLC-272H; first compound 0.0002 µM): 0.832
- relative viability (EPLC-272H; first compound 0.000632 µM): 0.547
- relative viability (EPLC-272H; first compound 0.002 µM): 0.321
- relative viability (EPLC-272H; first compound 0.006325 µM): 0.0867
- relative viability (EPLC-272H; first compound 0.02 µM): 0.1
- relative viability (H3255; first compound 0.0002 µM): 0.654
- relative viability (H3255; first compound 0.000632 µM): 0.757
- relative viability (H3255; first compound 0.002 µM): 0.376
- relative viability (H3255; first compound 0.006325 µM): 0.267
- relative viability (H3255; first compound 0.02 µM): 0.252
- relative viability (HCC-15; first compound 0.0002 µM): 0.818
- relative viability (HCC-15; first compound 0.000632 µM): 0.452
- relative viability (HCC-15; first compound 0.002 µM): 0.172
- relative viability (HCC-15; first compound 0.006325 µM): 0.207
- relative viability (HCC-15; first compound 0.02 µM): 0.14
- relative viability (LOU-NH91; first compound 0.0002 µM): 0.734
- relative viability (LOU-NH91; first compound 0.000632 µM): 0.664
- relative viability (LOU-NH91; first compound 0.002 µM): 0.508
- relative viability (LOU-NH91; first compound 0.006325 µM): 0.373
- relative viability (LOU-NH91; first compound 0.02 µM): 0.362
- relative viability (NCI-H1563; first compound 0.0002 µM): 0.829
- relative viability (NCI-H1563; first compound 0.000632 µM): 0.926
- relative viability (NCI-H1563; first compound 0.002 µM): 0.928
- relative viability (NCI-H1563; first compound 0.006325 µM): 0.799
- relative viability (NCI-H1563; first compound 0.02 µM): 0.77
- relative viability (NCI-H1650; first compound 0.0002 µM): 0.906
- relative viability (NCI-H1650; first compound 0.000632 µM): 0.398
- relative viability (NCI-H1650; first compound 0.002 µM): 0.206
- relative viability (NCI-H1650; first compound 0.006325 µM): 0.185
- relative viability (NCI-H1650; first compound 0.02 µM): 0.141
- relative viability (NCI-H1734; first compound 0.0002 µM): 0.498
- relative viability (NCI-H1734; first compound 0.000632 µM): 0.576
- relative viability (NCI-H1734; first compound 0.002 µM): 0.362
- relative viability (NCI-H1734; first compound 0.006325 µM): 0.298
- relative viability (NCI-H1734; first compound 0.02 µM): 0.246
- relative viability (NCI-H2023; first compound 0.0002 µM): 0.587
- relative viability (NCI-H2023; first compound 0.000632 µM): 0.451
- relative viability (NCI-H2023; first compound 0.002 µM): 0.123
- relative viability (NCI-H2023; first compound 0.006325 µM): 0.096
- relative viability (NCI-H2023; first compound 0.02 µM): 0.0789
- relative viability (NCI-H2170; first compound 0.0002 µM): 1.04
- relative viability (NCI-H2170; first compound 0.000632 µM): 0.999
- relative viability (NCI-H2170; first compound 0.002 µM): 0.671
- relative viability (NCI-H2170; first compound 0.006325 µM): 0.304
- relative viability (NCI-H2170; first compound 0.02 µM): 0.199
- relative viability (NCI-H2347; first compound 0.0002 µM): 0.736
- relative viability (NCI-H2347; first compound 0.000632 µM): 0.702
- relative viability (NCI-H2347; first compound 0.002 µM): 0.695
- relative viability (NCI-H2347; first compound 0.006325 µM): 0.589
- relative viability (NCI-H2347; first compound 0.02 µM): 0.422
- relative viability (NCI-H2405; first compound 0.0002 µM): 0.87
- relative viability (NCI-H2405; first compound 0.000632 µM): 0.623
- relative viability (NCI-H2405; first compound 0.002 µM): 0.447
- relative viability (NCI-H2405; first compound 0.006325 µM): 0.396
- relative viability (NCI-H2405; first compound 0.02 µM): 0.292
- relative viability (NCI-H3122; first compound 0.0002 µM): 0.241
- relative viability (NCI-H3122; first compound 0.000632 µM): 0.257
- relative viability (NCI-H3122; first compound 0.002 µM): 0.26
- relative viability (NCI-H3122; first compound 0.006325 µM): 0.207
- relative viability (NCI-H3122; first compound 0.02 µM): 0.178
- relative viability (NCI-H322M; first compound 0.0002 µM): 0.817
- relative viability (NCI-H322M; first compound 0.000632 µM): 0.91
- relative viability (NCI-H322M; first compound 0.002 µM): 0.71
- relative viability (NCI-H322M; first compound 0.006325 µM): 0.233
- relative viability (NCI-H322M; first compound 0.02 µM): 0.405
- relative viability (NCI-H441; first compound 0.0002 µM): 0.802
- relative viability (NCI-H441; first compound 0.000632 µM): 0.472
- relative viability (NCI-H441; first compound 0.002 µM): 0.29
- relative viability (NCI-H441; first compound 0.006325 µM): 0.193
- relative viability (NCI-H441; first compound 0.02 µM): 0.181
- relative viability (NCI-H520; first compound 0.0002 µM): 0.672
- relative viability (NCI-H520; first compound 0.000632 µM): 0.784
- relative viability (NCI-H520; first compound 0.002 µM): 0.196
- relative viability (NCI-H520; first compound 0.006325 µM): 0.155
- relative viability (NCI-H520; first compound 0.02 µM): 0.156
- relative viability (NCI-H647; first compound 0.0002 µM): 0.769
- relative viability (NCI-H647; first compound 0.000632 µM): 0.319
- relative viability (NCI-H647; first compound 0.002 µM): 0.172
- relative viability (NCI-H647; first compound 0.006325 µM): 0.117
- relative viability (NCI-H647; first compound 0.02 µM): 0.1
- relative viability (PC-14; first compound 0.0002 µM): 0.932
- relative viability (PC-14; first compound 0.000632 µM): 0.861
- relative viability (PC-14; first compound 0.002 µM): 0.317
- relative viability (PC-14; first compound 0.006325 µM): 0.0812
- relative viability (PC-14; first compound 0.02 µM): 0.0748
- relative viability (UMC-11; first compound 0.0002 µM): 0.612
- relative viability (UMC-11; first compound 0.000632 µM): 0.485
- relative viability (UMC-11; first compound 0.002 µM): 0.122
- relative viability (UMC-11; first compound 0.006325 µM): 0.108
- relative viability (UMC-11; first compound 0.02 µM): 0.084
